Broadly, the pKa is the pH at which an ionisable group is half protonated. Usually IC50 stands for the concentration that inhibits the measured activity by half. A word on the logP: it is a log measure of how a compound divides between an organic and an aqueous phase. Read a low logP as a more hydrophilic compound.

Structures can show the parent of a compound that is named as a salt.

The record followed here is patent US9168311B2, “Oligomer-dantrolene conjugates and related compounds” (Nektar Therapeutics, priority 2007, dated 2015).

Series [1] can be described thus: pKa and LogP determination with a Sirius GLPKa instrument. The format is physicochemical.
Series [2] addresses T1, cardiac L-type calcium channel (Homo sapiens, UniProt Q13936).
T1 construct: Human myocytes were obtained from specimens of human right atrial appendage obtained during surgery; endogenous in cells; host or cells: primary human atrial myocytes isolated from right atrial appendage
The series is described as follows: Calcium current (ICa) block, whole-cell patch clamp in isolated human atrial myocytes. The class given is cell-based. Conditions: for IC50: read-out: IC50 at 0.1 Hz; for Fold Difference (Parent vs. Derivative): ratio of IC50 at 0.1 Hz, derivative vs. dantrolene. On the procedure:
Human myocytes were obtained from specimens of human right atrial appendage obtained during surgery from hearts of patients undergoing cardiopulmonary bypass. The isolation procedure produced rod-shaped, calcium tolerant cells which were used within 24 hours after isolation (Crumb et al., (1995) Am J Physiol 268:H1335-H1342).
The whole-cell patch clamp technique was carried out at 23±1° C. with precise micromanipulation under high power visual magnification to measure calcium currents. Glass pipettes were fire polished to produce tip diameters of 1-4 μm. The tip of the pipette, filled with electrolyte “internal” solution (a composition of (mM): 120 CsCl, 20 TEACl, 5 NaCl, 1 CaCl2, 10 EGTA, 10 HEPES, 5 MgATP, 0.2 Na2GTP, adjusted to pH 7.2 with CsOH) was positioned onto a cell. The cell was in a bathing “external” solution (consisting of (mM): 1.8 CaCl2, 137 NaCl, 20 CsCl, 4 KCl, 1 MgCl2, 10 HEPES, 10 dextrose, pH=7.4 with NaOH). Pipette tip resistance was approximately 1.0 to 2.0 MΩ when filled with the internal solution. Suction was then applied to the pipette interior to seal the cell membrane onto the tip. Another suction pulse then broke the membrane, establishing electrical access into the interior of the cell. The cellular interior then became dialysed by the solution the patch pipette was filled with.
After rupture of the cell membrane (entering whole-cell mode), current kinetics and amplitudes were allowed to stabilize (currents elicited by a series of voltage pulses given at 0.1 Hz were superimposed) as the cell was dialyzed with internal solution and paced at 1 Hz (3-5 minutes). Calcium current (ICa) was measured using a voltage pulse to 0 mV (200 ms duration) from a holding potential of −60 mV. Only a pacing rate of 0.1 Hz was used. Test article, at concentrations of 0.1, 1, 3, 10, 30, and […] was added in a cumulative manner to a cell.
Currents and voltages were recorded with patch-clamp amplifiers (Axopatch 1-B, Axon Instruments, Foster City, Calif.). Creation of voltage clamp pulses and data acquisition was controlled by a computer using electrophysiology software (pCLAMP version 9.2, Axon Instruments, Foster City, Calif.). […] Each cell served as its own control.
All stock solutions (10 mM) were made by adding DMSO directly into the bottle containing the test article.
Approximate IC50 values (Table 1) were obtained from non-linear regression analysis of dose-response curves (FIG. 1) using GraphPad's Prism 5.01 software. Data was also analyzed for mean percent inhibition±SEM at the highest concentration tested, 100 μM (FIG. 2).
To test for cell sensitivity, 0.1 μM nisoldipine was added after exposure to test article.

T1 sequence (Q13936 whole entry): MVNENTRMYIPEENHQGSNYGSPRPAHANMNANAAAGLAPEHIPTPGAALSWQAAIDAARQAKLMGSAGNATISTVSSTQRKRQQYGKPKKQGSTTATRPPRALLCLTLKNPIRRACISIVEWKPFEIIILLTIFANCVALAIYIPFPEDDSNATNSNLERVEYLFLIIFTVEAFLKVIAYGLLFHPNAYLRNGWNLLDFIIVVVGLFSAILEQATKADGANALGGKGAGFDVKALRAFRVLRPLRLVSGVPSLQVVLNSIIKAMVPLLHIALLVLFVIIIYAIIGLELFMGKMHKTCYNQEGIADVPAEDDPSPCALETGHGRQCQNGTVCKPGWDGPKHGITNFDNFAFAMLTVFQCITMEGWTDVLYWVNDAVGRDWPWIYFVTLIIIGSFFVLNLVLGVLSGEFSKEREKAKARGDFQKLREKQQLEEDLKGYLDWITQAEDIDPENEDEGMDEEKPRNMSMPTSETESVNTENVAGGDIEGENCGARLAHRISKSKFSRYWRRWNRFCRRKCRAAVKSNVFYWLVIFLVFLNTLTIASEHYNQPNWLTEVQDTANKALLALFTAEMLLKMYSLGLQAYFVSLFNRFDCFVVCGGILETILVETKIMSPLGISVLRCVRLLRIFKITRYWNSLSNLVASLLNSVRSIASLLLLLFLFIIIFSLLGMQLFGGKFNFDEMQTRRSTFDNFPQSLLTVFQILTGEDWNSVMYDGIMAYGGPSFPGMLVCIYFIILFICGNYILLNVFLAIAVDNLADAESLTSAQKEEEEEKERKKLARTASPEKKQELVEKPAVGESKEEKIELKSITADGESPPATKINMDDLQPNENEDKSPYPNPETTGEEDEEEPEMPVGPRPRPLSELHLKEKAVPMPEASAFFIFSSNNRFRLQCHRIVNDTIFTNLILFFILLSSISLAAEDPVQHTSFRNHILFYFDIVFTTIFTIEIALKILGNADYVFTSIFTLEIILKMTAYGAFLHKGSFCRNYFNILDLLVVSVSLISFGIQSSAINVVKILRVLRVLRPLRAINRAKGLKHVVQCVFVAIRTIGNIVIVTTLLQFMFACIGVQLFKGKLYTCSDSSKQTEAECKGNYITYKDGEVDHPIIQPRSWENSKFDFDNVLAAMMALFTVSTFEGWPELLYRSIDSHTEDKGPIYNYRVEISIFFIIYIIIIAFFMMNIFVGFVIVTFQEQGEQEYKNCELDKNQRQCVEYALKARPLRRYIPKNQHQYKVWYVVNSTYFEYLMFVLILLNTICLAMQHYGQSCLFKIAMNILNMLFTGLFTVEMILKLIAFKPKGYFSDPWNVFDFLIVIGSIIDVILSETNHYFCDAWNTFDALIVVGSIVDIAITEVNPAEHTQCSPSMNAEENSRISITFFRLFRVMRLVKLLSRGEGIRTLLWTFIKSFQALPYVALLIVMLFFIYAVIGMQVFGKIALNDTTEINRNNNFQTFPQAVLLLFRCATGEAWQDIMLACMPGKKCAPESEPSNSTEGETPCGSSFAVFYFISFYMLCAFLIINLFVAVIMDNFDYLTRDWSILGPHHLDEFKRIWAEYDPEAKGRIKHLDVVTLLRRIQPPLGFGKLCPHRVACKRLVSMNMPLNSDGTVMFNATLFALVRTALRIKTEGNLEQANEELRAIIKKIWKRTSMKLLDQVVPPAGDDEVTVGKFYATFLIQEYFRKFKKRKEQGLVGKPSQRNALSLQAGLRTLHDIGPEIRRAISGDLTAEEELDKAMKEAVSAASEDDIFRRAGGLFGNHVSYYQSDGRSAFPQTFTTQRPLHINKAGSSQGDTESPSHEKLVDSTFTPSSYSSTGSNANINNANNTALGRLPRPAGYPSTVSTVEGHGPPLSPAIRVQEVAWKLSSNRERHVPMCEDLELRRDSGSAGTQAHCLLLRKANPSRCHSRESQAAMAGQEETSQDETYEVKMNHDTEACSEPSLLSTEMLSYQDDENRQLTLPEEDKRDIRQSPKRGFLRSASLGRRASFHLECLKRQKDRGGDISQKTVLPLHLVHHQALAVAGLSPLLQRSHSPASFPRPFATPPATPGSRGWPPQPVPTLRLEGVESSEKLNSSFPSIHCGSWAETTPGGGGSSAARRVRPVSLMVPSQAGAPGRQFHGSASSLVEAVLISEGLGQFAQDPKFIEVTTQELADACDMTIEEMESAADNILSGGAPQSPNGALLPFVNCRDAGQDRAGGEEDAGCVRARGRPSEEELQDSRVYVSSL
T1 sequence (Q08289 whole entry partner): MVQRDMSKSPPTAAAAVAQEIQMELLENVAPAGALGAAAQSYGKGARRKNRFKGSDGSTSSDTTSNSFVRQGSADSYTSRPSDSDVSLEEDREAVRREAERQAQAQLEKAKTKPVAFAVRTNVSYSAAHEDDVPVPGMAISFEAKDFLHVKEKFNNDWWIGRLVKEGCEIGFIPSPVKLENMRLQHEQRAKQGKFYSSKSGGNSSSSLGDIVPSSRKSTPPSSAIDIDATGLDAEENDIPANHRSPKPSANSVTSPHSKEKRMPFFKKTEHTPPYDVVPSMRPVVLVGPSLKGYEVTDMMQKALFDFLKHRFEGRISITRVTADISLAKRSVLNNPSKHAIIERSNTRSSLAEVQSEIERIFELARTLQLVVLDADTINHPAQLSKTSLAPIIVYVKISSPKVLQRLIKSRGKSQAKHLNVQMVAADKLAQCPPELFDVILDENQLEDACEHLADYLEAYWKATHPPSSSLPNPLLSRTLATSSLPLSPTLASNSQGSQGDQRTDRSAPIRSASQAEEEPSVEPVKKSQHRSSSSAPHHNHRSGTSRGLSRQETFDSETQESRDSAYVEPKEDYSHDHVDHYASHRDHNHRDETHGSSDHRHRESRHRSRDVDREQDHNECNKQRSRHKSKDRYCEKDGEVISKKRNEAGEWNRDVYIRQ
T1 sequence (P54289 25-956 partner limits assumed): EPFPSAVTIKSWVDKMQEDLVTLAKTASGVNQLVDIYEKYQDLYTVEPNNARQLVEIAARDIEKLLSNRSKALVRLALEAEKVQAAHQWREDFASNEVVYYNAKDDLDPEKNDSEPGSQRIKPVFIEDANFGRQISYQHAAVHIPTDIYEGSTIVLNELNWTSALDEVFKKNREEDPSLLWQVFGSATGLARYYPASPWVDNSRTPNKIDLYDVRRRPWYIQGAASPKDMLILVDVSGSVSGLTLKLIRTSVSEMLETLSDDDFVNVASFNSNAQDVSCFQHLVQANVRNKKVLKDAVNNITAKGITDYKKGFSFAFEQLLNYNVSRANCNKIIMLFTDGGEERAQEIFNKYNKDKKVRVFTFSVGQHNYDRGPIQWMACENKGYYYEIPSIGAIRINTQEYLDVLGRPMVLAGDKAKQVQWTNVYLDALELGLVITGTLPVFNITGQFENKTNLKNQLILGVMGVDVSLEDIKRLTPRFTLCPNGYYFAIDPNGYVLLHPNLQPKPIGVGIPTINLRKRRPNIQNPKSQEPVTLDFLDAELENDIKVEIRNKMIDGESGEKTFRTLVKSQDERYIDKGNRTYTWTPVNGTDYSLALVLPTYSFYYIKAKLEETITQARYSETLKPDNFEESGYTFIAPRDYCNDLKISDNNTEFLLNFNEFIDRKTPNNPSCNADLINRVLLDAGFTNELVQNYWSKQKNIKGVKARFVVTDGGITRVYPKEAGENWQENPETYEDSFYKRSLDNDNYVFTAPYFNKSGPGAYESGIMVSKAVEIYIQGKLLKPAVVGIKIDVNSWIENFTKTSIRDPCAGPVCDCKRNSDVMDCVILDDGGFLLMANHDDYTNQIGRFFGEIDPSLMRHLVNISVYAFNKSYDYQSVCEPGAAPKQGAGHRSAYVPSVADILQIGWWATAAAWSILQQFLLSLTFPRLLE
T1 sequence (P54289 957-1103 partner limits assumed): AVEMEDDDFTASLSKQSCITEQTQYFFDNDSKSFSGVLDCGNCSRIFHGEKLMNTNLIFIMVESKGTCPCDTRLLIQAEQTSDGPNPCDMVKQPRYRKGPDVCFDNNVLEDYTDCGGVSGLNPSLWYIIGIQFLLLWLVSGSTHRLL

With `O=C1CN(/N=C/c2ccc(-c3ccc([N+](=O)[O-])cc3)o2)C(O)=N1` [Dantrolene sodium salt, reference compound], in series [1], the pKa was found to be 7.11.

With `O=C1CN(/N=C/c2ccc(-c3ccc([N+](=O)[O-])cc3)o2)C(O)=N1` [Dantrolene], in series [2] (at 100 μM, 0.1 Hz, isolated human atrial myocytes), the “block of Ica amplitude” value was determined as 21.1%. In addition, the 50% inhibitory concentration (IC50) in series [2] worked out at 0.104 mM.

`COCCOCCOCCN1C(=O)CN(N=Cc2ccc(-c3ccc([N+](=O)[O-])cc3)o2)C1=O` [mPEG3-N-Dantrolene, mPEG3-N-dantrolene]: in series [2], the “Fold Difference (Parent vs. Derivative)” value came out at 1067.

Consider `COCCOCCOCCOc1cc([N+](=O)[O-])ccc1-c1ccc(C=NN2CC(=O)NC2=O)o1` [mPEG3-O-Dantrolene, mPEG3-O-dantrolene], for which the “Fold Difference (Parent vs. Derivative)” value in series [2] is 1144. In series [1], this compound yielded a log partition coefficient (logP) of -0.6 and a pKa of 8.69.

Take `COCCOCCOCCOCCOCCN1C(=O)CN(N=Cc2ccc(-c3ccc([N+](=O)[O-])cc3)o2)C1=O` [mPEG5-N-Dantrolene, mPEG5-N-dantrolene]: in series [2], the “Fold Difference (Parent vs. Derivative)” value is on record as 260 and the IC50 amounted to 27 mM.

`COCCOCCOCCOCCOCCOc1cc([N+](=O)[O-])ccc1-c1ccc(C=NN2CC(=O)NC2=O)o1` [mPEG5-O-Dantrolene, mPEG5-O-dantrolene]: in series [2], the “Fold Difference (Parent vs. Derivative)” value is given as 522 and the IC50 came to 54.3 mM. In series [1], this compound displayed a log partition coefficient (logP) of 0.74 and a pKa of 7.49.

For `COCCOCCOCCOCCOCCOCCOCCN1C(=O)CN(N=Cc2ccc(-c3ccc([N+](=O)[O-])cc3)o2)C1=O` [mPEG7-N-Dantrolene, mPEG7-N-dantrolene], in series [2], the “Fold Difference (Parent vs. Derivative)” value is given as 2 and the half-maximal inhibitory concentration (IC50) was 0.193 mM.

Consider `COCCOCCOCCOCCOCCOCCOCCOc1cc([N+](=O)[O-])ccc1-c1ccc(C=NN2CC(=O)NC2=O)o1` [mPEG7-O-Dantrolene, mPEG7-O-dantrolene], for which, in series [2], the “Fold Difference (Parent vs. Derivative)” value was 444 and the half-inhibitory concentration (IC50) came out at 46.2 mM. Moreover, in series [1], the log partition coefficient (logP) turned out to be 0.62 and the pKa was 7.32.

Consider `COC(=O)C1=C(C)NC(C)=C(C(=O)OCC(C)C)C1c1ccccc1[N+](=O)[O-]` (centres unmarked) [nisoldipine, reference compound], for which the “reduction Ica” value in series [2] (0.1 μM nisoldipine added after exposure to test article, 2 cells, cell sensitivity test) worked out at 100%.
